Like-named read-outs stand apart in the source and are kept apart here.
How the values were obtained:
Alternaria alternata [1] = assay: In vitro poisoned food technique against fungus (Ex. 20); type: cell-based; settings: poisoned food technique, PDA medium, dose 1 ml/gm/lit., after seven days
Alternaria alternata [2] = assay: Alternaria leaf spot/blight on inoculated tomato plants (Ex. 28); type: in vivo; settings: tomato plants, Alternaria alternata; after 7 days; dose 1 ml/gm/lit
tomato seedlings = assay: Response of tomato plants, greenhouse growth (Ex. 30); type: in vivo; settings: tomato seedlings, dose 1 ml/gm/lit
chili seedlings = assay: Response of chili plants, greenhouse growth (Ex. 31); type: in vivo; settings: chili seedlings, dose 1 ml/gm/lit
Aphid [3] = settings: Dose 1 ml/gm/lit.
Mite [4] = settings: Dose 1 ml/gm/lit.
Mealy Bug [5] = settings: Mealy Bug on cotton leaves, dose 1 ml/gm/lit., 48 Hrs.
Helicoverpa armigera [6] = settings: Helicoverpa armigera on okra fruits, dose 1 ml/gm/lit., 72 Hrs.
Spodoptera litura [7] = settings: Spodoptera litura on castor leaves, dose 1 ml/gm/lit.
Thrips [8] = settings: Thrips on cotton leaves, dose 1 ml/gm/lit.
Aphid [9] = settings: Aphids on cotton plants, green house, dose 1 ml/gm/lit.
Mite [10] = settings: mite on okra plants, green house, dose 1 ml/gm/lit. spray
Mealy Bug [11] = settings: mealy bug on cotton plants, green house, dose 1 ml/gm/lit. spray
Helicoverpa armigera [12] = settings: Helicoverpa armigera 3rd instar on chickpea plants, dose 1 ml/gm/lit. spray
Spodoptera litura [13] = settings: Spodoptera litura 3rd instar on cabbage plants, dose 1 ml/gm/lit. spray
Thrips [14] = settings: thrips on cotton plants, greenhouse, dose 1 ml/gm/lit. spray
[15] = Table 13, descriptive; no test described; cited from earlier work
[16] = 10 insects/treatment, 4 replications
[17] = 72 hrs, corrected for water control
[18] = 48 hrs, corrected for water control

Parthenin
Mean colony Diameter (mm) (Alternaria alternata [1]): 78.00 mm
% Inhibition of growth (Alternaria alternata [1]; vs untreated control): 11.36%
% Disease reduction over Control (Alternaria alternata [2]): 43.80%
Plant Height 5th Day (tomato seedlings; 5th day after application): 6.64 cm
Stem Girth 5th Day (tomato seedlings; 5th day after application): 1.66 mm
Plant Height 10th Day (tomato seedlings; 10th day after application): 7.29 cm
Stem Girth 10th Day (tomato seedlings; 10th day after application): 2.22 mm
Plant Height % Increase over pre on 10th Day (tomato seedlings; 10th day): 29.95%
Stem Girth % Increase over pre on 10th Day (tomato seedlings; 10th day): 55.53%
Plant Height Pre (tomato seedlings; before application): 5.61 cm
Stem Girth Pre (tomato seedlings; before application): 1.43 mm
CCI 5th Day (tomato seedlings; 5th day after application): 13.95
CCI % Increase over pre on 10th Day (tomato seedlings; 10th day): 20.70%
Root Length (cm) 10th Day (tomato seedlings; 10th day): 4.05 cm
CCI 10th Day (tomato seedlings; 10th day after application): 14.87
Root Length % Increase over control (tomato seedlings; 10th day, vs water control): 21.63%
CCI Pre (tomato seedlings; pre-application baseline): 12.32
CCI 5th Day (chili seedlings; 5th day after application): 14.50
Plant Height (cm) 5th Day (chili seedlings; 5th day after application): 6.13 cm
CCI % Increase over pre on 10th Day (chili seedlings; 10th day): 74.40%
Plant Height % Increase over pre on 10th Day (chili seedlings; 10th day): 52.29%
Root Lenght (cm) 10th Day (chili seedlings; 10th day): 3.12 cm
Stem Girth % Increase over pre on 10th Day (chili seedlings; 10th day): 38.18%
CCI 10th Day (chili seedlings; 10th day after application): 15.87
Plant Height (cm) 10th Day (chili seedlings; 10th day after application): 6.65 cm
Root Lenght % Increase over control (chili seedlings; 10th day, vs water control): 14.01%
CCI Pre (chili seedlings; pre-application baseline): 9.10
Plant Height (cm) Pre (chili seedlings; pre-application baseline): 4.37 cm
Total No. of dead insect at 48 Hrs. (Aphid [3]; 10 insects/treatment, 4 replications, cotton leaves): 6.00
% Corrected Mortality at 48 Hrs. (Aphid [3]; 48 hrs): 54.29%
% Mortality at 48 Hrs. (Aphid [3]; 48 hrs): 60.00%
Total No. of dead insect at 48 Hrs. (Mite [4]; 10 insects/treatment, 4 replications, okra leaves): 3.25
% Corrected Mortality at 48 Hrs. (Mite [4]; 48 hrs): 27.03%
% Mortality at 48 Hrs. (Mite [4]; 48 hrs): 32.50%
Total No. of dead insect at 48 Hrs. (Mealy Bug [5]; [16]): 4.75
% Mortality at 48 Hrs. (Mealy Bug [5]): 47.50%
% Corrected Mortality at 48 Hrs. (Mealy Bug [5]; corrected for water control): 44.74%
Total No. of dead insect at 72 Hrs. (Helicoverpa armigera [6]; [16]): 3.25
% Mortality at 72 Hrs. (Helicoverpa armigera [6]): 32.50%
% Corrected Mortality at 72 Hrs. (Helicoverpa armigera [6]; corrected for water control): 32.50%
Total No. of dead insect at 72 Hrs. (Spodoptera litura [7]; 10 insects/treatment, 72 hrs after application): 2.75
% Mortality at 72 Hrs. (Spodoptera litura [7]; 72 hrs after application): 27.50%
% Corrected Mortality at 72 Hrs. (Spodoptera litura [7]; [17]): 23.68%
Total No. of dead insect at 48 Hrs. (Thrips [8]; 10 insects/treatment, 48 hrs after application): 4.75
% Mortality at 48 Hrs. (Thrips [8]; 48 hrs after application): 47.50%
% Corrected Mortality at 48 Hrs. (Thrips [8]; [18]): 40.00%
Total No. of dead insect at 48 Hrs. (Aphid [9]; 10 insects/plant, 10 plants/treatment, 48 hrs): 57.50
% Mortality at 48 Hrs. (Aphid [9]; 48 hrs after application): 57.50%
% Corrected Mortality at 48 Hrs. (Aphid [9]; [18]): 50.00%
% Mortality at 48 Hrs. (Mite [10]; 48 hrs after application): 22.50%
Total No. of dead insect at 48 Hrs. (Mite [10]; 48 hrs after application): 22.50
% Corrected Mortality at 48 Hrs. (Mite [10]; [18]): 18.42%
% Mortality at 48 Hrs. (Mealy Bug [11]; 48 hrs after application): 50.00%
Total No. of dead insect at 48 Hrs. (Mealy Bug [11]; 48 hrs after application): 50.00
% Corrected Mortality at 48 Hrs. (Mealy Bug [11]; [18]): 44.44%
% Mortality at 72 Hrs. (Helicoverpa armigera [12]; 72 hrs after application): 35.00%
% Corrected Mortality at 72 Hrs. (Helicoverpa armigera [12]; [17]): 35.00%
% Mortality at 72 Hrs. (Spodoptera litura [13]; 72 hrs after application): 27.50%
% Corrected Mortality at 72 Hrs. (Spodoptera litura [13]; [17]): 23.68%
% Mortality at 48 Hrs. (Thrips [14]; 48 hrs after application): 45.00%
Total No. of dead insect at 48 Hrs. (Thrips [14]; 48 hrs after application): 45.00
% Corrected Mortality at 48 Hrs. (Thrips [14]; [18]): 38.89%
Antioxidant Activity - Mode of action [15]: Possesses antioxidant
Insecticidal Activities - Mode of action [15]: Antifeedant activity against

Source: patent US20250351832A1, “PHYTOCHEMICALS AS BIOPESTICIDES AND BIOSTIMULANTS” (KAY BEE BIO ORGANICS PVT. LTD., priority 2024, published 2025)
